Patent publication US12686875B2, “Small molecules for increasing precise genome editing efficiency” (Max-Planck-Gesellschaft zur Förderung der Wissenschaften …, priority 2018, dated 2026)

Tests used:
[1] = tested on: wild-type cell line, NFASC target; assay: Genome editing of NFASC target with transient NHEJ/MMEJ/SSA inhibition in a wild-type cell line; type: cell-based; conditions: combination of 2 μM M3814, 320 pmol PoIQ siRNA aa765, PoIQ coding strand nicking, 5 μM 6-OH-dopa, 50 μM AICAR
Description: FIG. 7: Inhibition of RAD52 dependent single strand annealing (SSA) together with MMEJ inhibition is needed to further increase HDR for rare targets with long stretches of homology. The NFASC target has an 11 bp stretch of homology. The first three bars show editing efficiencies in a wild-type cell line, a DNA-PKcs KR cell line leading to NHEJ inhibition, and a DNA-PKcs KR+PoIQ Knockout cell line leading to NHEJ and MMEJ inhibition. […] HDR, mix (HDR with indels), NHEJ, and estimated MMEJ/SSA (at least 2 bp microhomology) are indicated in green, light green, light blue, and light purple, respectively. Error bars show the SEM of at least two replicates and one experiment for the last bar.
In some cases the target for genome editing has long homology stretches around the cleavage site. […] We speculated that indel formation was carried out by the RAD52 dependent single strand annealing pathway (SSA) which uses long stretched of homology.

[2] = tested on: K562 cells expressing wild-type DNA-PKcs; assay: Genome editing of FRMD7 with Cas9 in K562 cells, amplicon sequencing (HDR / precise genome editing efficiency); type: cell-based, human; conditions: for HDR-increasing effect / precise genome editing efficiency, comparison of DNA-PKcs inhibitors: K562 cells, Cas9 induced DSB, 2 μM and 20 μM
Experimental: Cells were grown at 37° C. in a humidified incubator gassed with 5% CO2.
The recombinant A.s. Cpf1 and S.p. Cas9 protein and electroporation enhancer was ordered from IDT (Coralville, USA) and nucleofection was done using the manufacturer's protocol, except for the following alterations. […] Cells were counted using the Countess Automated Cell Counter (Invitrogen).
Incubation at 65° C. for 10 min, 68° C. for 5 min and finally 98° C. for 5 min was performed to yield ssDNA as a PCR template. […] PCR was done in a T100 Thermal Cycler (Bio-Rad) using the KAPA2G Robust PCR Kit (Peqlab, 07-KK5532-03) with supplied buffer B and 3 μl of cell extract in a total volume of 25 μl. The thermal cycling profile of the PCR was: 95° C.

K562 cells = assay: Resazurin assay for cell survival three days after editing; type: cell-based, human
Description: FIG. 2: Cell survival of human immortalized myelogenous leukemia cells K562 cells after treatment with the small molecule M3814. Results of a resazurin assay for cell survival three days after editing are shown. Resazurin is converted into fluorescent resorfin by cellular dehydrogenases and resulting fluorescence (Excitation: 530-570 nm, Emission: 590-620 nm) is a marker for the amount of living cells. Resorfin fluorescence (610±30 nm) of cells without any treatment is set to 100% cell survival. Error bars show the SEM of three technical replicates for three technical replicates.
Cells were either seeded with or without editing reagents. The media was supplemented with or without M3814 and each condition was carried out in duplicate. After 72 h media was aspirated and 100 μl fresh media together with 10 μl resazurin solution (Cell Signaling, 11884) was added. Resazurin is converted into fluorescent resorfin by cellular dehydrogenases and resulting fluorescence (Excitation: 530-570 nm, Emission: 590-620 nm) is considered as a linear marker for cell viability (O'Brien et al. 2000). Cells were incubated with resazurin at 37° C. The redox reaction was measured every hour by fluorescence readings using a Typhoon 9410 imager (Amersham Biosciences). […] Duplicate wells with media and resazurin, but without cells, were used a blank.

H9 hESCs = assay: Genome editing of LYPLA1 and SCAP by Cas9n double nicking in H9 hESCs-iCRISPR; type: cell-based, human; conditions: M3814 for three days
Description: Genome editing efficiencies of the LYPLA1 and SCAP gene in H9 hESCs-iCRISPR Cas9 nickase (Cas9n) double nicking and treatment with M3814 for three days and with DNA-PKcs K3753R cells are shown. HDR, mix (HDR with indels), NHEJ (non-homologous end joining), and MMEJ (microhomology-mediated end joining with at least two bp of microhomology) are indicated in green, light green, light blue, and light purple, respectively.
We recently created an iCRISPR-Cas9n line from human induced pluripotent stem cells (hiPSCs) (409-B2, Riken BioResource Center) and human embryonic stem cells (hESCs) (H9) as described by Gonzalez et al. Stem cells were grown on Matrigel Matrix (Corning, 35248) in mTeSR1 medium (StemCell Technologies, 05851) with supplement (StemCell Technologies, 05852) that was replaced daily. K562 cells (ECACC, 89121407) were grown with IMDM (ThermoFisher, 12440053) supplemented with 10% FBS. Cells were grown at 37° C. in a humidified incubator gassed with 5% CO2. Media was replaced every second day for non-pluripotent cell lines. Cell cultures were maintained 4-6 days until ~80% confluency, and subcultured at a 1:6 to 1:10 dilution. Adherent cells were dissociated using EDTA (VWR, 437012C). […]
The recombinant A.s. […] Cells were counted using the Countess Automated Cell Counter (Invitrogen). […]

409B2 hiPSCs = assay: Genome editing of FRMD7 with Cas9 protein in 409B2 hiPSCs; type: cell-based, human; conditions: 2 μM, Cas9 induced DSB
Description: FIG. 5: Comparison of the effect of DNA-PK inhibitors on genome editing efficiency. Editing efficiencies of FRMD7 with Cas9 protein and treatment with different concentrations of M3814, NU7026, and NU7441 are shown for K562 cells (A) and 409B2 hiPSCs (B). HDR, mix (HDR with indels), NHEJ, and MMEJ are indicated in green, light green, light blue and light purple, respectively. Error bars show the SEM of three replicates. A skull indicates excessive cell death of up to around 80% determined by phase contrast light microscopy.
We recently created an iCRISPR-Cas9n line from human induced pluripotent stem cells (hiPSCs) (409-B2, Riken BioResource Center) and human embryonic stem cells (hESCs) (H9) as described by Gonzalez et al. Stem cells were grown on Matrigel Matrix (Corning, 35248) in mTeSR1 medium (StemCell Technologies, 05851) with supplement (StemCell Technologies, 05852) that was replaced daily. K562 cells (ECACC, 89121407) were grown with IMDM (ThermoFisher, 12440053) supplemented with 10% FBS. Cells were grown at 37° C. in a humidified incubator gassed with 5% CO2. Media was replaced every second day for non-pluripotent cell lines. Cell cultures were maintained 4-6 days until ~80% confluency, and subcultured at a 1:6 to 1:10 dilution. Adherent cells were dissociated using EDTA (VWR, 437012C). The media was supplemented with 10 μM Rho-associated protein kinase (ROCK) inhibitor Y-27632 (Calbiochem, 688000) after cell splitting for one day in order to increase cell survival.
The recombinant A.s. Cpf1 and S.p. Cas9 protein and electroporation enhancer was ordered from IDT (Coralville, USA) and nucleofection was done using the manufacturer's protocol, except for the following alterations. […] Cells were counted using the Countess Automated Cell Counter (Invitrogen). […]

mouse embryos = conditions: cited from earlier work
HEK293A cells = conditions: cited from earlier work
rabbit embryos = conditions: cited from earlier work
human stem cells = conditions: cited from earlier work
human LIG4 = human LIG4 (Homo sapiens, UniProt P49917); conditions: Greco et al. 2016; cited from earlier work
[3] = tested on: precise genome editing (PGE); conditions: SCR7 and L755507 added together with RS-1; cited from earlier work
polymerase theta (PoIQ) = assay: Genome editing efficiency with PoIQ (MMEJ) inhibition in cells with DNA-PKcs KR mutation; type: cell-based, human; conditions: cells with DNA-PKcs KR mutation (NHEJ inhibited)
Experimental: FIG. 6: Inhibition of polymerase theta (PoIQ) dependent microhomology mediated end-joining (MMEJ) can further increase HDR if the target of interest is prone to MMEJ repair. All cells have inhibited NHEJ due to the DNA-PKcs KR mutation, which can be transiently achieved by M3814 in wildtype cells as well. Shown are genome editing efficiencies. Cells were treated with different amounts of siRNA against PoIQ (Dharmacon ON-TARGET plus Human POLQ (10721) siRNA-SMART pool), single nicking of the first exon of PolQ, a combination of the SMART pool and coding strand nicking, and siRNA against PoIQ binding the mRNA at the sequence corresponding to amino acid 765 of PolQ. A cell line with both DNA-PKcs KR and PoIQ knockout mutation is shown for comparison. HDR, mix (HDR with indels), NHEJ, and estimated MMEJ (at least 2 bp microhomology) are indicated in green, light green, light blue, and light purple, respectively. Error bars show the SEM of at least two replicates.
For some targets HDR is increased but a substantial portion of genome editing events however still consists of indels. These are due to the microhomology mediated end-joining (MMEJ) pathway (also referred to as alternative NHEJ) which can compete with NHEJ and serves as a back-up pathway which relies on short stretches of microhomology at the cleavage site. […]

human LIG4, sequence (P49917 whole entry): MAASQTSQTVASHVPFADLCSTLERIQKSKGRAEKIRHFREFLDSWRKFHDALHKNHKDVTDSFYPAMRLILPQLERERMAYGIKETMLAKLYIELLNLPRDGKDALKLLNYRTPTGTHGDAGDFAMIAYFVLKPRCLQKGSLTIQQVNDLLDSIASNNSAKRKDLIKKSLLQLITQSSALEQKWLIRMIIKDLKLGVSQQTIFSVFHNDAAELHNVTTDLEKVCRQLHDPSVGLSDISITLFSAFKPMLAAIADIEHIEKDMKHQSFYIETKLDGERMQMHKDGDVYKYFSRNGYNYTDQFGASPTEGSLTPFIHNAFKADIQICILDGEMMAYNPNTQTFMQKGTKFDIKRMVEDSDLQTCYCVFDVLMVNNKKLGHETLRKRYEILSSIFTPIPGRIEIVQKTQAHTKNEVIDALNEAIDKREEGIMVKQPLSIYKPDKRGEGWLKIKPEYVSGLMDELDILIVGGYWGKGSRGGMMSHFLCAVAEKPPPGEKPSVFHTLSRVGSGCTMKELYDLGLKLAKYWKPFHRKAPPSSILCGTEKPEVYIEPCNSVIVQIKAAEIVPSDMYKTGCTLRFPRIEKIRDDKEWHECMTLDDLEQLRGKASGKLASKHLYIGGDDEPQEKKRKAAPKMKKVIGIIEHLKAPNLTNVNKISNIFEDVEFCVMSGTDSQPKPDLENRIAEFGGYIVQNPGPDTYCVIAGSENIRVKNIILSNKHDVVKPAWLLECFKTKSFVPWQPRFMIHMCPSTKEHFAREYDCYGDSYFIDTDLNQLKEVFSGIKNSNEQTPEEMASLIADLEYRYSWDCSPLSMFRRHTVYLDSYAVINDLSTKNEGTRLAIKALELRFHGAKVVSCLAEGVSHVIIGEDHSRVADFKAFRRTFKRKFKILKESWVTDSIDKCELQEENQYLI
human LIG4, sequence (Q13426 whole entry partner): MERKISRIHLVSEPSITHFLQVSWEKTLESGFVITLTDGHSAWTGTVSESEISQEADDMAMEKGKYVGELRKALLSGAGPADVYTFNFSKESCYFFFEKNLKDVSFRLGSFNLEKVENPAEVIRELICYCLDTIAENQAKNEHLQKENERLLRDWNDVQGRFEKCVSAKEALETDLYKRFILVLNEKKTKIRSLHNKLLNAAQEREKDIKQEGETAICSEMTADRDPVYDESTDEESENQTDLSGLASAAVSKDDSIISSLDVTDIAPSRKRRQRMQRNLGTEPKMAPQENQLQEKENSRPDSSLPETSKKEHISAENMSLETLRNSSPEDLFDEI

NC(Cc1cc(O)c(O)cc1O)C(=O)O (centres unmarked) [6-hydroxy-depa, 6-hydroxy-dopa]
HDR, combined NHEJ/MMEJ/SSA inhibition [1]: drastic HDR increase

NC(=O)c1ncn([C@@H]2O[C@H](COP(=O)(O)O)[C@@H](O)[C@H]2O)c1N [AICAR, AICA ribonucleotide 5′-monophosphate]
HDR, combined NHEJ/MMEJ/SSA inhibition [1]: drastic HDR increase

COc1ccc([C@@H](O)c2cc(-c3ncnc4cc(N5CCOCC5)ccc34)c(F)cc2Cl)nn1 [M3814, Nedisertib]
precise genome editing / HDR efficiency ([2]; K562 cells expressing wild-type DNA-PKcs, FRMD7, Cas9, transient M3814 treatment (three days), 18% without M3814): 81% | HDR-increasing effect / precise genome editing efficiency, comparison of DNA-PKcs inhibitors [2]: stronger HDR-increasing effect than treatment with NU7026 and NU7441 | toxicity (cell survival, resazurin assay) (K562 cells): moderate toxicity | HDR efficiencies compared with DNA-PKcs K3753R mutation (H9 hESCs): comparable to what is achievable by total inactivation of the DNA-PKcs catalytic active site | HDR efficiencies (409B2 hiPSCs): strongly increased HDR efficiencies | HDR, combined NHEJ/MMEJ/SSA inhibition [1]: drastic HDR increase

O=c1cc(N2CCOCC2)oc2c1ccc1ccccc12 [NU7026]
HDR-increasing effect / precise genome editing efficiency, comparison of DNA-PKcs inhibitors [2]: significantly less precise genome editing efficiency | HDR efficiencies (409B2 hiPSCs): much lower efficiencies

O=c1cc(N2CCOCC2)oc2c(-c3cccc4c3sc3ccccc34)cccc12 [NU7441]
HDR-increasing effect / precise genome editing efficiency, comparison of DNA-PKcs inhibitors [2]: significantly less precise genome editing efficiency | HDR efficiencies (409B2 hiPSCs): much lower efficiencies

O=c1[nH]c(=S)[nH]c(N=Cc2ccccc2)c1N=Cc1ccccc1 [SCR7]
efficiency of PGE (mouse embryos; from 5% without SCR7 (Maruyama et al. 2015)): 22.7% | effect on PGE (mouse embryos; other researchers): no significant effect | effect on PGE (HEK293A cells): marginal but significant increase | effect on PGE (rabbit embryos): no significant effect | effect on PGE (human stem cells): no significant effect | inhibitory properties on human LIG4 (human LIG4): neither selective nor potent inhibitors | effect on PGE when added together with RS-1, compared to RS-1 alone [3]: no additive effect

siRNA aa765: siRNA binding PoIQ mRNA before the sequence corresponding to the first RAD51 binding domain (SEQ ID NO: 63) (TTGGAAAATACTGTAATCATCCCTGCA; listed as DNA, chemistry not given here)
HDR and indels with MMEJ signature, siRNA alone (polymerase theta (PoIQ)): high HDR
